# Counter-ions that a name gives are not always drawn. Like-named read-outs stand apart in the source and are kept apart here.
# What was measured:
# [1] = biological target: T1, reuptake of noradrenaline (NA) in synaptosomes (Rattus norvegicus, UniProt Q63380); experiment: Inhibition of noradrenaline reuptake in synaptosomes; type: biochemical
# T1 construct: in synaptosomes as described in WO 97/16451; from tissue
# [2] = biological target: T2, reuptake of serotonine (5-HT) in synaptosomes (Rattus norvegicus, UniProt P31652); experiment: Inhibition of serotonin reuptake in synaptosomes; type: biochemical
# T2 construct: in synaptosomes as described in WO 97/16451; from tissue
# T2 sequence (P31652 whole entry): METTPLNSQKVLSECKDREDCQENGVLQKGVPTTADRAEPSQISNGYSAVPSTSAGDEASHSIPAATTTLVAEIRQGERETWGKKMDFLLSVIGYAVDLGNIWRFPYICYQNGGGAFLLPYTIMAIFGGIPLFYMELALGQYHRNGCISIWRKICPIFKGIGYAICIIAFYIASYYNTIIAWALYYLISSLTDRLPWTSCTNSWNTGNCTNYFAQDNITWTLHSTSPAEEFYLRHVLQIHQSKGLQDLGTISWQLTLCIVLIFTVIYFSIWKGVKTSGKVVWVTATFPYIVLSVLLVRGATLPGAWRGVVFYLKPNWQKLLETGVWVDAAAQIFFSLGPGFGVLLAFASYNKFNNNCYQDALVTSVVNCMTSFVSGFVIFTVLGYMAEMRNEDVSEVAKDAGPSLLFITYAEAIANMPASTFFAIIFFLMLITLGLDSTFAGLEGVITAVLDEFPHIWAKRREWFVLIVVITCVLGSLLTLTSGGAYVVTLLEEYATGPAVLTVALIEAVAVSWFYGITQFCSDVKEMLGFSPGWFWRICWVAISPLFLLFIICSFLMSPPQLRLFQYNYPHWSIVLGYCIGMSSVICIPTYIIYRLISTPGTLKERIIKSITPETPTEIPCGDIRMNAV
# Description: A number of compounds were tested for their ability to inhibit the reuptake of the monoamine neurotransmitters dopamine (DA) noradrenaline (NA) and serotonine (5-HT) in synaptosomes as described in WO 97/16451.
# The test values are given as IC50 (the concentration (μM) of the test substance which inhibits the specific binding of ^3H-DA, ^3H-NA, or ^3H-5-HT by 50%).
# [3] = biological target: T3, reuptake of dopamine (DA) in synaptosomes (Rattus norvegicus, UniProt P23977); experiment: Inhibition of dopamine reuptake in synaptosomes; type: biochemical; conditions: 3H-DA, read-out: DA-uptake IC50
# T3 construct: in synaptosomes as described in WO 97/16451; from tissue
# T3 sequence (P23977 whole entry): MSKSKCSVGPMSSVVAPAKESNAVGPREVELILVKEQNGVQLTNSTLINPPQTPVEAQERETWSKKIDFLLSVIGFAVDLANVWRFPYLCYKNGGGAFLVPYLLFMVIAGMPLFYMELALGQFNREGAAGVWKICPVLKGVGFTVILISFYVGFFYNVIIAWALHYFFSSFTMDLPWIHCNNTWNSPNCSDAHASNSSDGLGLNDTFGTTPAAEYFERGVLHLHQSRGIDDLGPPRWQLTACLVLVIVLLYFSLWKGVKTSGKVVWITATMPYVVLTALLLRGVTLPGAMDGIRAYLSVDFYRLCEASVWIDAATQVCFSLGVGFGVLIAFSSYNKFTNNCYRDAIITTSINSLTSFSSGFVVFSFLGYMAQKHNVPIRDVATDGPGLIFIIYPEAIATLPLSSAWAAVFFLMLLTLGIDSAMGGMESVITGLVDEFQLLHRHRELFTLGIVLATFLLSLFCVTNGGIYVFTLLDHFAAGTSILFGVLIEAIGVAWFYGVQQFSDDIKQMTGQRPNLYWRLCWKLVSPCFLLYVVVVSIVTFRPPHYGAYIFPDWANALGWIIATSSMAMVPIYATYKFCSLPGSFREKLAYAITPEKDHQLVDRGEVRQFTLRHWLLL
# [4] = synaptosomes, 3H-NA, read-out: NA-uptake IC50
# T1 sequence (Q63380 1-617): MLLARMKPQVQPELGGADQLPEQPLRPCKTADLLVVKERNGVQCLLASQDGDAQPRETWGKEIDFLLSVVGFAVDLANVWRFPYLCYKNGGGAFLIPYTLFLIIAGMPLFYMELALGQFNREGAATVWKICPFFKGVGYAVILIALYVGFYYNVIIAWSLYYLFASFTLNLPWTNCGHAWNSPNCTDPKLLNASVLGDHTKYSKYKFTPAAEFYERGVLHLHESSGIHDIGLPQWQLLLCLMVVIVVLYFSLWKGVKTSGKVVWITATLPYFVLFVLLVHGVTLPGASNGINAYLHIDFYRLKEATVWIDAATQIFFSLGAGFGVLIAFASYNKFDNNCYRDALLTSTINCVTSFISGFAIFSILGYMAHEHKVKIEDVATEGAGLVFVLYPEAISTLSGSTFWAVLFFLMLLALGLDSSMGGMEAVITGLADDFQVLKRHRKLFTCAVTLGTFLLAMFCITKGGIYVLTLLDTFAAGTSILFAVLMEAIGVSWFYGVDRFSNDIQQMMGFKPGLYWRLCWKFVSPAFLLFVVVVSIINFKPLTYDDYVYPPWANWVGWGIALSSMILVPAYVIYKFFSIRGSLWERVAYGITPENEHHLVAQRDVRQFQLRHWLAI
Structure (SMILES),"IC50 [1, 4] [nM]",IC50 [2] [nM],IC50 [3] [nM],melting point [°C],IC50 [1] [nM]
"O=[N+]([O-])c1ccc2nc(N3CC4CCCC(C3)N4)ccc2c1 [1st compound of Method B, 3-(6-Nitro-quinolin-2-yl)-3,9-diaza-bicyclo[3.3.1]nonane]",1200,0.9,> 1000,,
"CN1C2CCCC1CN(c1ccc3ccccc3n1)C2 (as salt: fumaric acid salt) [2nd compound of Method A, 9-Methyl-3-quinolin-2-yl-3,9-diaza-bicyclo[3.3.1]nonane]",,,,170.2 to 176.9,
"CN1C2CCCC1CN(c1ccc3ccccc3n1)C2 [2nd compound of Method A, 9-Methyl-3-quinolin-2-yl-3,9-diaza-bicyclo[3.3.1]nonane]",140,7.7,> 1000,,
"COc1ccc2nc(N3CC4CCCC(C3)N4C)ccc2c1 [5th compound of Method A, 3-(6-Methoxy-quinolin-2-yl)-9-methyl-3,9-diaza-bicyclo[3.3.1]nonane]",,26,1800,,100
